Laboratory results reported in US20250134902A1, “DRUG REPURPOSING FOR DELAYED TREATMENT OF ISCHEMIC STROKE” (UNIVESRITY OF NORTH TEXAS HEALTH SCIENCE CENTER, priority 2022, published 2025).
“Also recorded” adds a separate entry of the source.

Key:
[1] = system: rat model of focal cerebral ischemia (tMCAO); test: Infarct and inflammation after tMCAO (TTC, Nissl, GFAP, Iba1); assay type: in vivo; conditions: for infarct size by TTC staining: 24 hours after a single dose administered 48 hours after tMCAO
Protocol: Assessment of infarct and inflammation. For immunohistochemical assessments 6 random animals were chosen from each group by a treatment-blinded observer to reduce the chance of bias. Nissl staining was performed using thionin. Rats were deeply anesthetized with isoflurane and transcardially perfused with saline and 4% formaldehyde. Brains were removed and post fixed for 48 hours. Coronal sections were made at […] through the region of the middle cerebral artery, affixed to gelatin-coated glass slides and stained. Four sections representing Bregma levels ˜0.7, 0.2, −0.8, and −2.12 were assessed for each animal. Sections were scanned with a 4× objective using a Keyence BZ-X800 microscope and analyzed using Image J. Infarct assessment was performed by a treatment blinded observer two separate times and the average infarct was assessed by determining the extent of histologically healthy tissue using the method of Swanson (Swanson et al., 1990).
The inflammatory response to stroke was observed using immunohistochemistry for glial fibrillary acidic protein (GFAP, Neomarkers RB-087, 1:5000) to assess astrogliosis and ionized calcium binding adapter molecule 1 (Iba1 Fujifilm Wako #019-19741, 1:5000), followed by a biotinylated secondary antibody (Jackson Immuno Research #711-065-152, 1:400). […] Area of staining the striatum, cortex, and dorsal hippocampus was assessed by a treatment-blinded observer using wide-field images captured with a 4× objective using a Keyence BZ-X800. The percent area above threshold was determined with Image J. Images were processed by a treatment-blinded observer using ImageJ by converting images to 8 bits, manually outlining the areas of interest using the corpus callosum to define the boundaries of the striatum and cortex, subtracting background and subjecting the images to auto thresholding. When more than one staining run was required to process tissue, the mean gray values of a standard ROI in the contralateral cortex were used to normalize between the runs.
Rats were sacrificed under isoflurane anesthesia 2, 6, or 24 hours after dosing, and brains were removed to assess protein expression in the ischemic and contralateral cortex by immunoblotting. Brains were rapidly removed, chilled for 2 min in ice-cold saline, and sliced into 2 mm coronal slices with a brain matrix for rapid 2,3,5 triphenyltetrazolium chloride (TTC) staining. Sections were immersed in 1% TTC for 1 minute at room temperature to reveal the extent of the infarct. Cortical penumbra tissue was collected, snap frozen, and stored at −80° C. for subsequent western blotting. Protein was extracted from tissue using T-PER™ reagent with HALT protease inhibitor (Thermo-Pierce), and concentrations were determined with the PIERCE® BCA assay (Thermo-Pierce). Protein was separated on 4-20% SDS-PAGE gels (BioRad) and transferred to nitrocellulose. Blots were probed with primary antibodies for BDNF (Abcam ab226842; 1:1000) and goat anti-rabbit-HRP secondary (Thermo 32260; 1:10,000). Bands were visualized by ECL with PIERCE® SUPERSIGNAL® West Dura Femto (Thermo-Pierce) reagent using a UVP EpiChemi3. Density was assessed with Image J and normalized to β-actin (Thermo MA1-91399; 1:1000).

BDNF = test: Steady-state BDNF in brain homogenates by ELISA (rats of the maximum tolerated dose study); assay type: in vivo, rat; conditions: 135 mg/kg p.o., ten days
Protocol: Actions of oxeladin on BDNF in the brain. […] Cerebral cortex and hippocampal samples were homogenized in TBS supplemented with 0.1% NP-40 detergent and protease inhibitor cocktail. Protein concentrations were determined with a PIERCE® BCA assay (ThermoPierce). Samples were diluted 1:20 and assayed in triplicate according to manufacturer's instructions and assayed a FLEXSTATION® 3 plate reader (Molecular Devices, Sunnyvale, CA).

[2] = system: rat model of focal cerebral ischemia (tMCAO); test: BrdU cell proliferation in the brain after tMCAO; assay type: in vivo
Protocol: Two days before tMCAO rats were trained to lick 5% sucrose from a 1 ml syringe. After behavioral assessment on Day 1 after tMCAO, rats were randomly assigned to 4 groups in a blinded fashion. Groups included sucrose Vehicle, or 45, 68 or 135 mg/kg oxeladin. Oxeladin was prepared in 5% sucrose and provided to rats from the end of a 1 ml syringe. Starting 48 hours after stroke, rats were administered treatments daily from day 3 to day 14. On days 3-14 rats were injected i.p. with 50 mg/kg bromodeoxyuridine (BrdU; Fisher Bioreagents). At the conclusion of the study, rats were euthanized under deep isoflurane anesthesia. Rats were transcardially perfused with cold saline and either decapitated for brain collection and flash freezing of brain tissue or transcardially perfused with 4% formaldehyde for immunohistochemical studies.
Actions of oxeladin on proliferation in the brain. Fourteen days after tMCAO, rats were transcardially perfused with saline and 4% formaldehyde, as described above. Brains were removed and post-fixed for 48 hours in 4% formaldehyde and then moved to phosphate buffer. Brains were blocked and serial […] coronal sections through the subventricular zone (SVZ) and dorsal hippocampus (HP) were made with a cryostat. Sections were affixed to glass slides and stored at −20° C. until processed. Sections were subjected to antigen retrieval with 10 mM sodium citrate (pH 6.0). Slides were immersed in preheated buffer, placed in a commercial vegetable steamer at 99° C. for 15 minutes and allowed to cool before processing. Immunohistochemistry was performed for the detection of BrdU with a monoclonal primary antibody (Cell Signaling Technology #5292S, 1:5000), followed by a biotinylated secondary antibody (Jackson Immuno Research #715066151, 1:400). […] In the striatum and cortex, the percent area containing BrdU positive cells was assessed in wide-field images captured with a 4× objective using a Keyence BZ-X800 as described above. In the dentate gyrus, individual BrdU+ cells were counted by a treatment-blinded observer in 3 sections per rat (n=6/group). In the SVZ, BrdU+ staining was assessed by a treatment-blinded observer using NEUROLUCIDA® software (Microbrightfield) to map positive cells on the ischemic side (n=4-6).

[3] = source not stated; cited from earlier work
[4] = treatment starting 48 hours after tMCAO, 14-15 days after tMCAO, vs vehicle
[5] = 135 mg/kg starting 48 hours after tMCAO, 14-15 days after tMCAO, vs vehicle

CCN(CC)CCOCCOC(=O)C(CC)(CC)c1ccccc1 [Oxeladin]
infarct extent / loss of healthy brain tissue by Nissl staining ([1]; 14-15 days after tMCAO, whole hemisphere, cortex and striatum, vs Vehicle, P<0.05): significantly reduced infarct extent | infarct size by TTC staining [1]: No difference in infarct size | infarct size by TTC staining ([1]; listed as oxeladin): No significant difference in infarct size | astrogliosis (GFAP staining) [1, 4]: no differences between vehicle and oxeladin treated groups; also recorded: did not alter astrogliosis | microgliosis (Iba1 staining) [1, 4]: no differences observed | BDNF levels in the hippocampus (ELISA) (BDNF): not in the hippocampus | BDNF levels in the cerebral cortex (ELISA) (BDNF; P<0.05): significant increase; also recorded: significantly increase | BrdU staining (area of BrdU+ cells) in the cerebral cortex [2, 5]: significantly smaller area; also recorded: significantly reduced | BrdU staining in the striatum [2, 5]: did not alter BrdU staining | BrdU positive cells in the subventricular zone (SVZ), infarcted hemisphere ([2]; 135 mg/kg, 14-15 days after tMCAO, vs vehicle): no differences in BrdU+ cells between treatment groups; also recorded: did not reveal a significant difference | cell proliferation in the brain or SVZ after tMCAO ([2]; overall conclusion): does not enhance cell proliferation | LogP [3]: 4.43
